Measured values published in ChEMBL document CHEMBL1128898, “Sch 51048, a novel broad-spectrum orally active antifungal agent: Synthesis and preliminary structure-activity profile” (1995).

Experiments:
Type in all cases: functional
Details in all cases: inhaled or nasal
[1] = test system: Mus musculus; assay: Compound was tested for percentage survival of normal CF-1 Mice infected […] albicans strain C-65 colony forming units at dose 50 mg/Kg
[2] = test system: Mus musculus; assay: Compound was tested for percentage survival of immunocompromized CF-1 mice infected by inhalation with Aspergillus flavus strain ND134 at dose 50 mg/Kg
[3] = test system: Mus musculus; assay: Compound was tested for percentage survival of normal CF-1 Mice infected […] albicans strain C-65 colony forming units at dose 25 mg/Kg
[4] = test system: Mus musculus; assay: Compound was tested for percentage survival of immunocompromized CF-1 mice infected by inhalation with Aspergillus flavus strain ND134 at dose 100 mg/Kg
[5] = test system: Mus musculus; assay: Compound was tested for percentage survival of immunocompromized CF-1 mice infected […] albicans strain C-65 colony forming units at dose 50 mg/Kg
[6] = test system: Mus musculus; assay: Compound was tested for percentage survival of immunocompromized CF-1 mice infected […] albicans strain C-65 colony forming units at dose 25 mg/Kg
[7] = test system: Mus musculus; assay: Compound was tested for percentage survival of immunocompromized CF-1 mice infected by inhalation with Aspergillus fumigatus strain ND142 conidia at dose 50 mg/Kg
[8] = test system: Mus musculus; assay: Compound was tested for percentage survival of immunocompromized CF-1 mice infected by inhalation with Aspergillus fumigatus strain ND142 conidia at dose 100 mg/Kg
[9] = test system: Mus musculus; assay: Compound was tested for percentage survival of immunocompromized CF-1 mice infected […] albicans strain C-65 colony forming units at dose 10 mg/Kg
[10] = test system: Mus musculus; assay: Compound was tested for percentage survival of normal CF-1 Mice infected […] albicans strain C-65 colony forming units at dose 1 mg/kg
[11] = test system: Mus musculus; assay: Compound was tested for percentage survival of normal CF-1 Mice infected […] albicans strain C-65 colony forming units at dose 10 mg/Kg

SMILES	survival at 50 mg/kg [1]	survival at 50 mg/kg [2]	survival at 25 mg/kg [3]	survival at 100 mg/kg [4]	survival at 50 mg/kg [5]	survival at 25 mg/kg [6]	survival at 50 mg/kg [7]	survival at 100 mg/kg [8]	survival at 10 mg/kg [9]	survival at 1 mg/kg [10]	survival at 10 mg/kg [11]
O=c1n(-c2ccc(N3CCN(c4ccc(OC[C@@H]5CC[C@@](Cn6cncn6)(c6ccc(F)cc6F)C5)cc4)CC3)cc2)cnn1C1CCCC1	70%	40%	50%	50%							
CCC(C)n1ncn(-c2ccc(N3CCN(c4ccc(OC[C@H]5CO[C@](Cn6cncn6)(c6cc(F)cc(F)c6)O5)cc4)CC3)cc2)c1=O (some centres undefined)	30%		20%		0%	0%					
CC(C)n1ncn(-c2ccc(N3CCN(c4ccc(OC[C@@H]5CC[C@@](Cn6cncn6)(c6ccc(F)cc6F)C5)cc4)CC3)cc2)c1=O							10%	10%			
CCC(CC)n1ncn(-c2ccc(N3CCN(c4ccc(OC[C@@H]5CO[C@@](Cn6cncn6)(c6ccc(F)cc6F)C5)cc4)CC3)cc2)c1=O		60%	100%		50%	30%	70%		20%	80%	100%
CCC(C)n1ncn(-c2ccc(N3CCN(c4ccc(OC[C@@H]5CO[C@@](Cn6cncn6)(c6ccc(F)cc6F)C5)cc4)CC3)cc2)c1=O (single isomer, unassigned)	100%	80%	90%	90%	40%	40%	10%	30%	30%		80%
OC(Cn1cncn1)(Cn1cncn1)c1ccc(F)cc1F [FLUCONAZOLE]			100%			40%			30%	0%	90%
CCC(C)n1ncn(-c2ccc(N3CCN(c4ccc(OC[C@H]5CO[C@](Cn6cncn6)(c6ccc(Cl)cc6Cl)O5)cc4)CC3)cc2)c1=O (some centres undefined) [ITRACONAZOLE]	40%		0%	20%	20%	0%		10%			
